Experimental data reported in US20210038607A1, “OXADIAZOLYLTHIOPHENE DERIVATIVES USEFUL AS HISTONE DEACETYLASE INHIBITORS” (Karus Therapeutics Limited, priority 2018, published 2021).

How the values were obtained:
[1] = test system: acetylated α-tubulin in A549 lung adenocarcinoma cells; experiment: Acetylated α-tubulin in-cell western (ICW) assay; assay type: cell-based; conditions: Homo sapiens, 16 h exposure, relative to 40 μM scriptaid positive control, read-out: EC50 Ac-α-tubulin, A549 cells
Procedure: Acetylated α-Tubulin and Histone H3 in-Cell Western (ICW) Assays
A549 cells were maintained in DMEM (Life Technologies)+10% FBS+2 mM glutamine & penicillin (10 μg/mL) and streptomycin ([…]. 10,000 A549 cells per well were plated into 96 well tissue culture plates (Corning) and incubated at 37° C. overnight in a humidified atmosphere containing 5% CO2 prior to addition of compounds. Compounds (dissolved in 100% DMSO) were diluted into cell culture media at 2× final assay concentration. 2× compound or DMSO (negative control) were added to cells (final DMSO concentration 0.4%). Untreated control wells received media. For acetylated α-tubulin assays, 40 μM scriptaid was used as a positive control. For acetylated histone H3 assays, 40 μM Trichostatin A (TSA) was used as a positive control. Cells were exposed to compound at 37° C. in a humidified atmosphere containing 5% CO2 for 16 h.
Measurement of the impact of compounds on levels of acetylated α-tubulin and histone H3 was performed using specific antibodies and near-infrared immunofluorescent dyes. Briefly, media was removed from wells of assay plates. Cells were washed once with PBS and fixed in 3.7% formaldehyde PBS solution at room temperature for 20 min. Cells were then permeabilised by washing 5 times in 0.1% triton-X-100 PBS at room temperature with gentle agitation for 5 min per wash. Non-specific antibody staining was blocked by the addition of Odyssey blocking buffer (Li-Cor) for 1.5 h at room temperature with gentle agitation. Cells were then incubated with primary antibody (mouse monoclonal anti-acetylated α-tubulin (clone 6-11B-1), Sigma or rabbit polyclonal anti-acetylated histone H3, Millipore) diluted in Odyssey blocking buffer at 4° C. with gentle shaking overnight (no antibody control and secondary antibody only wells were incubated with Odyssey blocking buffer only). Cells were washed five times with 0.1% tween PBS and labelled with secondary antibody (IR dye 800CW-conjugated goat anti mouse IgG or -goat anti rabbit IgG, Li-Cor) and cell stains Sapphire700 (Li-Cor) and Draq5 (Biostatus) diluted in Odyssey blocking buffer at room temperature in the dark with gentle shaking for 1 h (no antibody control wells were incubated with Odyssey blocking buffer only and secondary antibody only with diluted secondary antibody but no cell stains). Cells were washed with 0.1% Tween PBS five times and scanned using a Li-Cor Odyssey SA plate reader in 700 and 800 nm channels. Acetylated α-tubulin or histone H3 signal was normalised to cell number using the cell stain signal. Percentage increase in acetylated α-tubulin or histone H3 after compound treatment over the mean of DMSO treated controls, relative to scriptaid and TSA positive controls, respectively was calculated. EC50 values were calculated using GraphPad Prism software and nonlinear regression with 0% bottom and 100% top constraints.

[2] = target: T1, Human HDAC11 (Homo sapiens, UniProt Q96DB2); experiment: HDAC11 biochemical assay, class IIa-specific substrate; conditions: read-out: HDAC Isoform IC50 (nM) 11
T1 construct: Human HDAC11 (full length); His (N); host or cells: baculovirus expression system
T1 sequence (Q96DB2 1-347): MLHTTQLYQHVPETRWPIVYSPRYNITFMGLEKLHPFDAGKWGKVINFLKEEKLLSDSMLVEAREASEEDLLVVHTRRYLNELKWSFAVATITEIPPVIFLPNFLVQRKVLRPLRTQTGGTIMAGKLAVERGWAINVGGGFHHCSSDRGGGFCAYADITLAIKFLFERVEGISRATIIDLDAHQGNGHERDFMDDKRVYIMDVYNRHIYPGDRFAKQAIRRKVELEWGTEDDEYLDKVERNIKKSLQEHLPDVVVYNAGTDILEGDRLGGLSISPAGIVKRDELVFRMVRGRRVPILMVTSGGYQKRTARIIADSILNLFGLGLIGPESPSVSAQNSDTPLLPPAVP
How it was run: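 Full-length N-His human HDAC11 from baculovirus, 5 ng/μl, incubated with 50 μM Boc-Lys(trifluoroacetyl)-AMC for 30 min at 30 °C. Buffer: 50 mM Tris-HCl pH 8.0, 137 mM NaCl, 2.7 mM KCl, 1 mM MgCl2, 1 mg/mL BSA, 1% DMSO. Developer releases AMC; fluorescence read at 360/460 nm.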

[3] = target: T2, Human HDAC10 (Homo sapiens, UniProt Q969S8); experiment: HDAC10 biochemical assay, AMC-labeled peptide substrate; conditions: read-out: HDAC Isoform IC50 (nM) 10
T2 construct: Human HDAC10 (a.a. 1-481); GST (N); His (C); host or cells: baculovirus expression system
T2 sequence (Q969S8 1-481): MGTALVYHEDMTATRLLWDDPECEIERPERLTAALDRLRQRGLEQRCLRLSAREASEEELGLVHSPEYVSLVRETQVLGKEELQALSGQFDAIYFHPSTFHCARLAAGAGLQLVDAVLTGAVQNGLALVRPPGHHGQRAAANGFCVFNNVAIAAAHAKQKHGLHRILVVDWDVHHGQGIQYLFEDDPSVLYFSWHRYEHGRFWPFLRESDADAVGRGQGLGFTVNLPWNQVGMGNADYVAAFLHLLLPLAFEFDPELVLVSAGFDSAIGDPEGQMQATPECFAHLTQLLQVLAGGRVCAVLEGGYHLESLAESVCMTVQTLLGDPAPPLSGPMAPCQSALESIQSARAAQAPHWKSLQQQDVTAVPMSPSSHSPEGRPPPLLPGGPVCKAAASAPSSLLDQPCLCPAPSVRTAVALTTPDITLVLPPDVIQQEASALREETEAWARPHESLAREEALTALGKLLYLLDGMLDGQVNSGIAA
How it was run: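 Baculovirus-expressed GST/His-tagged human HDAC10 (aa 1-481), 12 ng/ul, incubated with 50 μM RHKK(Ac)AMC in Tris pH 8.0 buffer with BSA and 1% DMSO, 2 h at 30 °C. Developer then releases AMC, read at 360/460 nm.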

| SMILES | EC50 [1] [µM] | IC50 [2] [nM] | IC50 [3] [nM] |
| --- | --- | --- | --- |
| O=C(c1cnnc(N(Cc2ccc(-c3noc(C(F)(F)F)n3)s2)c2cnccn2)c1)N1C[C@@H]2C[C@H]1CO2 [Example FV, 5-[(1S,4S)-2-Oxa-5-azabicyclo[2.2.1]heptane-5-carbonyl]-N-(pyrazin-2-yl)-N-({5-[5-(trifluoromethyl)-1,2,4-oxadiazol-3-yl]thiophen-2-yl}methyl)pyridazin-3-amine] | ≤ 1 | > 10000 | > 10000 |
| O=C(c1ccc(N(Cc2ccc(-c3noc(C(F)(F)F)n3)s2)c2cnccn2)nn1)N1CCC12COC2 [Example FH, 6-{6-Oxa-1-azaspiro[3.3]heptane-1-carbonyl}-N-(pyrazin-2-yl)-N-({5-[5-(trifluoromethyl)-1,2,4-oxadiazol-3-yl]thiophen-2-yl}methyl)pyridazin-3-amine] | ≤ 1 | > 10000 | > 10000 |
| O=C(c1ccc(N(Cc2ccc(-c3noc(C(F)(F)F)n3)s2)c2cnccn2)nn1)N1CCC1 [Example FF, 6-(Azetidine-1-carbonyl)-N-(pyrazin-2-yl)-N-({5-[5-(trifluoromethyl)-1,2,4-oxadiazol-3-yl]thiophen-2-yl}methyl)pyridazin-3-amine] | ≤ 1 | > 10000 | > 10000 |
| O=C(c1cnnc(N(Cc2ccc(-c3noc(C(F)(F)F)n3)s2)c2cnccn2)c1)N1CCC1 [Example FS, 5-(Azetidine-1-carbonyl)-N-(pyrazin-2-yl)-N-({5-[5-(trifluoromethyl)-1,2,4-oxadiazol-3-yl]thiophen-2-yl}methyl)pyridazin-3-amine] | ≤ 1 | > 10000 | > 10000 |
| CNC(=O)c1cnnc(N(Cc2ccc(-c3noc(C(F)(F)F)n3)s2)c2cnccn2)c1 [Example DY, N-Methyl-6-[(pyrazin-2-yl)({5-[5-(trifluoromethyl)-1,2,4-oxadiazol-3-yl]thiophen-2-yl}methyl)amino]pyridazine-4-carboxamide] | ≤ 1 | > 10000 | > 10000 |
| O=C(O)c1cnnc(N(Cc2ccc(-c3noc(C(F)(F)F)n3)s2)c2cnccn2)c1 [Example DW, 6-[(Pyrazin-2-yl)({5-[5-(trifluoromethyl)-1,2,4-oxadiazol-3-yl]thiophen-2-yl}methyl)amino]pyridazine-4-carboxylic acid] | ≥ 10 | > 10000 | > 10000 |
| FC(F)(F)c1nc(-c2ccc(CN(c3cnccn3)c3ccc(CN4CCOCC4)nn3)s2)no1 [Example FN, 6-[(Morpholin-4-yl)methyl]-N-(pyrazin-2-yl)-N-({5-[5-(trifluoromethyl)-1,2,4-oxadiazol-3-yl]thiophen-2-yl}methyl)pyridazin-3-amine] | ≤ 1 | > 10000 | > 10000 |
| O=C(c1cnnc(N(Cc2ccc(-c3noc(C(F)(F)F)n3)s2)c2cnccn2)c1)N1CCS(=O)(=O)CC1 [Example ED, 4-{6-[(Pyrazin-2-yl)({5-[5-(trifluoromethyl)-1,2,4-oxadiazol-3-yl]thiophen-2-yl}methyl)amino]pyridazine-4-carbonyl}-1λ^6-thiomorpholine-1,1-dione] | ≤ 1 | > 10000 | > 10000 |
| O=C(c1ccc(N(Cc2ccc(-c3noc(C(F)(F)F)n3)s2)c2cnccn2)nn1)N1CC[S+]([O-])CC1 [Example FD, 4-{6-[(Pyrazin-2-yl)({5-[5-(trifluoromethyl)-1,2,4-oxadiazol-3-yl]thiophen-2-yl}methyl)amino]pyridazine-3-carbonyl}-1lambda4-thiomorpholin-1-one] | ≤ 1 | > 10000 | > 10000 |
| COC1CN(Cc2ccnc(N(Cc3ccc(-c4noc(C(F)(F)F)n4)s3)c3cnccn3)c2)C1 [Example GH, N-{4-[(3-Methoxyazetidin-1-yl)methyl]pyridin-2-yl}-N-({5-[5-(trifluoromethyl)-1,2,4-oxadiazol-3-yl]thiophen-2-yl}methyl)pyrazin-2-amine] | ≤ 1 | > 10000 | > 10000 |
| O=C(c1ccc(N(Cc2ccc(-c3noc(C(F)(F)F)n3)s2)c2cnccn2)nn1)N1C[C@@H]2C[C@H]1CO2 [Example FE, 6-[(1S,4S)-2-Oxa-5-azabicyclo[2.2.1]heptane-5-carbonyl]-N-(pyrazin-2-yl)-N-({5-[5-(trifluoromethyl)-1,2,4-oxadiazol-3-yl]thiophen-2-yl}methyl)pyridazin-3-amine] | 1 to 10 | > 10000 | > 10000 |

The remaining lines, values ahead:

| EC50 [1] [µM] | IC50 [2] [nM] | IC50 [3] [nM] | SMILES |
| --- | --- | --- | --- |
| ≤ 1 | > 10000 | > 10000 | O=C(c1ccc(N(Cc2ccc(-c3noc(C(F)(F)F)n3)s2)c2cnccn2)nn1)N1CCCCC1 [Example FG, 6-(Piperidine-1-carbonyl)-N-(pyrazin-2-yl)-N-({5-[5-(trifluoromethyl)-1,2,4-oxadiazol-3-yl]thiophen-2-yl}methyl)pyridazin-3-amine] |
| ≤ 1 | > 10000 | > 10000 | CN1CCN(C(=O)c2cnnc(N(Cc3ccc(-c4noc(C(F)(F)F)n4)s3)c3cnccn3)c2)CC1 [Example EC, 5-(4-Methylpiperazine-1-carbonyl)-N-(pyrazin-2-yl)-N-({5-[5-(trifluoromethyl)-1,2,4-oxadiazol-3-yl]thiophen-2-yl}methyl)pyridazin-3-amine] |
| ≤ 1 | > 10000 | > 10000 | NC(=O)c1cnnc(N(Cc2ccc(-c3noc(C(F)(F)F)n3)s2)c2cnccn2)c1 [Example DX, 6-[(Pyrazin-2-yl)({5-[5-(trifluoromethyl)-1,2,4-oxadiazol-3-yl]thiophen-2-yl}methyl)amino]pyridazine-4-carboxamide] |
| ≤ 1 | > 10000 | > 10000 | O=C(c1cnnc(N(Cc2ccc(-c3noc(C(F)(F)F)n3)s2)c2cnccn2)c1)N1CCOCC1 [Example EB, 5-(Morpholine-4-carbonyl)-N-(pyrazin-2-yl)-N-({5-[5-(trifluoromethyl)-1,2,4-oxadiazol-3-yl]thiophen-2-yl}methyl)pyridazin-3-amine] |
| ≤ 1 | > 10000 | > 10000 | COC1CN(C(=O)c2ccc(N(Cc3ccc(-c4noc(C(F)(F)F)n4)s3)c3cnccn3)nn2)C1 [Example DR, 6-(3-Methoxyazetidine-1-carbonyl)-N-(pyrazin-2-yl)-N-({5-[5-(trifluoromethyl)-1,2,4-oxadiazol-3-yl]thiophen-2-yl}methyl)pyridazin-3-amine] |
